Assays:
Assay type in all cases: biochemical
[1] = molecular target: PIM-1 (Homo sapiens, UniProt P11309); experiment: Enzyme PIM-1 Assay (radiometric [33P]ATP incorporation into PIM2tide, filter plate); settings: 35 μM ATP, 7.5 μM PIM2tide, 0.25 nM PIM-1, 60 min at 22° C.; high dose 10 μM
Procedure: (§1) The assay for the determination of PIM-1 activity is based on the incorporation of [^33P]PO4 from [γ-^33P]ATP into PIM2tide substrate and capture of the radiolabeled peptide onto a Whatman P81 (phosphocellulose) filter plate. The amount of radiolabeled product is then measured by liquid scintillation counting. The final buffer conditions were as follows: 20 mM K^+MOPS, pH 7.4, 10 mM MgCl2, 0.005% Tween-20, 1 mM DTT. Assay mixtures contained 35 μM [γ-^33P]ATP (20 μCi/mL), 7.5 μM PIM2tide and 0.25 nM PIM-1 in a total volume of 50 μL. Incubations were carried out for 60 min at 22° C. and quenched with 75 μL, of 200 mM H3PO4, filtered through a Whatman P81 plate and washed (1×200 μL and 5×100 μL) with 200 mM H3PO4. Fifty μL of liquid scintillation cocktail were then added per well, and the plate was counted for 30 s/well using a TopCount NXT.
(§2) Compounds were prepared at 50× the final concentration in DMSO by conducting 3-fold serial dilutions from a 500-μM intermediate dilution to give a 10-point dosing curve having a high dose of 10 μM. One-μL aliquots of these were then transferred to the assay mixtures above to give a final concentration of DMSO of 2%. A standard or reference compound was typically included on each assay plate to validate that plate. For each plate, percent of control (POC) values were calculated for each well. IC50's were estimated from the POC's using a standard 4-parameter logistic model. The IC50 is defined as the concentration of inhibitor at which the POC equals 50 for the fitted curve.

[2] = molecular target: T1, GST-tagged recombinant full-length human Pim-2 (Homo sapiens, UniProt Q9P1W9); experiment: PIM-2 Assay (as Example A with GST-tagged recombinant full-length human Pim-2); settings: 4 μM ATP, 1.0 μM PIM2tide, 1.5 nM Pim-2; high dose 10 μM
T1 construct: GST-tagged recombinant full-length human Pim-2; GST
Procedure: as §1, §2
Assay was performed as described in Example A, using 4 μM [γ-^33P]ATP (20 μCi/mL), 1.0 μM PIM2tide and 1.5 nM GST-tagged recombinant full-length human Pim-2 in place of PIM-1.

[3] = molecular target: recombinant rat PIM-3 (Rattus norvegicus, UniProt O70444); experiment: PIM-3 Assay (as Example A with recombinant rat PIM-3); settings: 30 μM ATP, 3.75 μM PIM2tide, 0.5 nM PIM-3; high dose 10 μM
Procedure: as §1, §2
Assay was performed as described in Example A, using 30 μM [γ-^33P]ATP (20 μCi/mL), 3.75 μM PIM2tide and 0.5 nM recombinant rat PIM-3 in place of PIM-1.

T1 sequence (Q9P1W9 whole entry): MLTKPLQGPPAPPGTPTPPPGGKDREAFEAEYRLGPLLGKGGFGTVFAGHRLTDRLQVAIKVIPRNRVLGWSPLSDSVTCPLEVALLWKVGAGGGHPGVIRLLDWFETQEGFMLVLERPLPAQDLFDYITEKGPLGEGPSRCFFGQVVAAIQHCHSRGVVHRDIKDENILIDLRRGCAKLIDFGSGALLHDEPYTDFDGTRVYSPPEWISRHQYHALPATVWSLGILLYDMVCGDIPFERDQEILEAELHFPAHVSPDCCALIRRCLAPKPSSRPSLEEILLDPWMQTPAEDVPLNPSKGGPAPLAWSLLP
PIM-1, sequence (P11309 whole entry, species assumed): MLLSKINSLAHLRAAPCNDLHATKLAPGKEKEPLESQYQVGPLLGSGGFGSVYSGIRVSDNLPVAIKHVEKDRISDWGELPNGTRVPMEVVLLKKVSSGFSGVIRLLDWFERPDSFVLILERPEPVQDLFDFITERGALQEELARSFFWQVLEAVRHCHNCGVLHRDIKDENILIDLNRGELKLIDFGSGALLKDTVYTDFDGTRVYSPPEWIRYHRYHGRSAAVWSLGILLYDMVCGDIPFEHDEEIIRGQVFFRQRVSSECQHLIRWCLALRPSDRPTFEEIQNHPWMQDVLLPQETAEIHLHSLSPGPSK

| Compound | IC50 [1] [nM] | IC50 [2] [nM] | IC50 [3] [nM] |
| --- | --- | --- | --- |
| N[C@@H]1CCN(c2cccc3ccc(-c4nnc5ccccn45)nc23)C[C@@H]1F (relative stereo) [Example 27, (cis)-1-(2-([1,2,4]triazolo[4,3-a]pyridin-3-yl)quinolin-8-yl)-3-fluoropiperidin-4-amine] | 34 | 570 | 38 |
| COCCOc1ccn2c(-c3ccc4cccc(N5CCNCC5)c4n3)nnc2c1 [Example 1, 2-(7-(2-Methoxyethoxy)-[1,2,4]triazolo[4,3-a]pyridin-3-yl)-8-(piperazin-1-yl)quinoline] | 255 | ≥ 10000 | 554 |
| COc1ccn2c(-c3ccc4cccc(N5CCNCC5)c4n3)nnc2c1 [Example 2, 2-(7-Methoxy-[1,2,4]triazolo[4,3-a]pyridin-3-yl)-8-(piperazin-1-yl)quinoline] | 179 | ≥ 10000 |  |
| COc1ccn2c(-c3ccc4cccc(N5CCC(N)CC5)c4n3)nnc2c1 [Example 3, 1-(2-(7-Methoxy-[1,2,4]triazolo[4,3-a]pyridin-3-yl)quinolin-8-yl)piperidin-4-amine] | 24 | 2310 | 60 |
| COc1ccn2c(-c3ccc4cccc(N5CCOCC5)c4n3)nnc2c1 [Example 4, 4-(2-(7-Methoxy-[1,2,4]triazolo[4,3-a]pyridin-3-yl)quinolin-8-yl)morpholine] | 2790 | ≥ 10000 |  |
| C[C@@H]1CN(c2cccc3ccc(-c4nnc5ccccn45)nc23)CCN1 [Example 7, (R)-2-([1,2,4]Triazolo[4,3-a]pyridin-3-yl)-8-(3-methylpiperazin-1-yl)quinoline] | 17 | 3590 | 105 |
| C[C@@H]1CN(c2cccc3ccc(-c4nnc5ccccn45)nc23)C[C@H](C)N1 [Example 8, 2-([1,2,4]Triazolo[4,3-a]pyridin-3-yl)-8-((cis)-3,5-dimethylpiperazin-1-yl)quinoline] | 54 | ≥ 10000 | 189 |
| CCNCc1ccn2c(-c3ccc4cccc(N5CCC(CN)CC5)c4n3)nnc2c1 [Example 12, N-((3-(8-(4-(aminomethyl)piperidin-1-yl)quinolin-2-yl)-[1,2,4]triazolo[4,3-a]pyridin-7-yl)methyl)ethanamine] | 3 | 92 | 4 |
| CC1CCCN(c2cccc3ccc(-c4nnc5ccccn45)nc23)C1 (stereo not drawn) [Example 19, 2-([1,2,4]triazolo[4,3-a]pyridin-3-yl)-8-(3-methylpiperidin-1-yl)quinoline] | 18 | 1800 |  |
| OC1CCCN(c2cccc3ccc(-c4nnc5ccccn45)nc23)C1 (stereo not drawn) [Example 20, 1-(2-([1,2,4]triazolo[4,3-a]pyridin-3-yl)quinolin-8-yl)piperidin-3-ol] | 48 | 2380 |  |
| CC1(C)CN(c2cccc3ccc(-c4nnc5ccccn45)nc23)CCN1 [Example 23, 2-([1,2,4]triazolo[4,3-a]pyridin-3-yl)-8-(3,3-dimethylpiperazin-1-yl)quinoline] | 22 | 647 | 62 |
| Cc1nc(CN2CCN(c3cccc4ccc(-c5nnc6ccccn56)nc34)CC2)cs1 [Example 24, 4-((4-(2-([1,2,4]triazolo[4,3-a]pyridin-3-yl)quinolin-8-yl)piperazin-1-yl)methyl)-2-methylthiazole] | 150 | ≥ 10000 |  |
| CC1CCCN(c2c(Br)ccc3ccc(-c4nnc5ccccn45)nc23)C1 (stereo not drawn) [Example 25, 2-([1,2,4]triazolo[4,3-a]pyridin-3-yl)-7-bromo-8-(3-methylpiperidin-1-yl)quinoline] | 128 | 3020 |  |
| CC1(N)CCN(c2cccc3ccc(-c4nnc5ccccn45)nc23)CC1 [Example 26, 1-(2-([1,2,4]triazolopyridin-3-yl)quinolin-8-yl)-4-methylpiperidin-4-amine] | 21 | 613 | 62 |

Further lines, results first:

| IC50 [1] [nM] | IC50 [2] [nM] | IC50 [3] [nM] | Compound |
| --- | --- | --- | --- |
| 24 | 2600 | 121 | c1cc(N2CCCCC2)c2nc(-c3nnc4ccccn34)ccc2c1 [Example 5, 2-([1,2,4]Triazolo[4,3-a]pyridin-3-yl)-8-(piperidin-1-yl)quinoline] |
| 31 | 2980 | 105 | c1cc(N2CCNCC2)c2nc(-c3nnc4ccccn34)ccc2c1 [Example 6, 2-([1,2,4]Triazolo[4,3-a]pyridin-3-yl)-8-(piperazin-1-yl)quinoline] |
| 11 | 543 | 24 | NC1CCN(c2cccc3ccc(-c4nnc5ccccn45)nc23)CC1 [Example 9, 1-(2-([1,2,4]Triazolo[4,3-a]pyridin-3-yl)quinolin-8-yl)piperidin-4-amine] |
| 3 | 224 | 13 | NCC1CCN(c2cccc3ccc(-c4nnc5ccccn45)nc23)CC1 [Example 10, (1-(2-([1,2,4]Triazolo[4,3-a]pyridin-3-yl)quinolin-8-yl)piperidin-4-yl)methanamine] |
| 84 | 2600 | 217 | NCC1CCN(c2cccc3ccc(-c4nnc5cc(CO)ccn45)nc23)CC1 [Example 11, (3-(8-(4-(Aminomethyl)piperidin-1-yl)quinolin-2-yl)-[1,2,4]triazolo[4,3-a]pyridin-7-yl)methanol] |
| 2 | 29 | 4 | NCc1ccn2c(-c3ccc4cccc(N5CCC(CN)CC5)c4n3)nnc2c1 [Example 13, (1-(2-(7-(Aminomethyl)-[1,2,4]triazolo[4,3-a]pyridin-3-yl)quinolin-8-yl)piperidin-4-yl)methanamine] |
| 4 | 509 | 20 | NCC1CCN(c2cccc3ccc(-c4nnc5cc(C(O)CO)ccn45)nc23)CC1 (stereo not drawn) [Example 14, 1-(3-(8-(4-(Aminomethyl)piperidin-1-yl)quinolin-2-yl)-[1,2,4]triazolo[4,3-a]pyridin-7-yl)ethane-1,2-diol] |
| 15 | 2080 |  | OCC1CCCN(c2cccc3ccc(-c4nnc5ccccn45)nc23)C1 (stereo not drawn) [Example 15, (1-(2-([1,2,4]Triazolo[4,3-a]pyridin-3-yl)quinolin-8-yl)piperidin-3-yl)methanol] |
| 3 | 185 | 10 | NCC1CCN(c2cc(F)cc3ccc(-c4nnc5ccccn45)nc23)CC1 [Example 16, (1-(2-([1,2,4]triazolo[4,3-a]pyridin-3-yl)-6-fluoroquinolin-8-yl)piperidin-4-yl)methanamine] |
| 77 | 1960 | 51 | NCC1CCN(c2ccc(F)c3ccc(-c4nnc5ccccn45)nc23)CC1 [Example 17, (1-(2-([1,2,4]triazolo[4,3-a]pyridin-3-yl)-5-fluoroquinolin-8-yl)piperidin-4-yl)methanamine] |
| 32 | 736 | 25 | NCC1CCN(c2cc(Cl)cc3ccc(-c4nnc5ccccn45)nc23)CC1 [Example 18, (1-(2-([1,2,4]Triazolo[4,3-a]pyridin-3-yl)-6-chloroquinolin-8-yl)piperidin-4-yl)methanamine] |
| 7 | 142 |  | N[C@@H]1CCCN(c2cccc3ccc(-c4nnc5ccccn45)nc23)C1 [Example 21, (R)-1-(2-([1,2,4]triazolo[4,3-a]pyridin-3-yl)quinolin-8-yl)piperidin-3-amine] |
| 270 | 3100 |  | N[C@H]1CCCN(c2cccc3ccc(-c4nnc5ccccn45)nc23)C1 [Example 22, (S)-1-(2-([1,2,4]triazolo[4,3-a]pyridin-3-yl)quinolin-8-yl)piperidin-3-amine] |
